Biological target: Full length human recombinant PIKFYVE (Homo sapiens (Human), UniProt Q9Y2I7)
Test: Inhibition of PIKfyve (microfluidic electrophoresis kinase assay)
Assay type: biochemical
Conditions: 2 nM enzyme, PI3P/PS substrate, 3 h at room temperature, 12 concentrations
Method: Full length human recombinant PIKFYVE expressed in baculovirus expression system as N-terminal GST-fusion protein (265 kDa) was obtained from Carna Biosciences (Kobe, Japan). The kinase substrate was prepared by mixing and sonicating fluorescently-labeled phosphatidylinositol 3-phosphate (PI3P) with phospho-L-serine (PS) at a 1:10 ratio in 50 mM HEPES buffer pH7.5.
The kinase reactions were assembled in 384-well plates (Greiner) in a total volume of […] as follows. Kinase protein was pre-diluted in an assay buffer comprising 25 mM HEPES, pH 7.5, 1 mM DTT, 2.5 mM MgCl2, and 2.5 mM MnCl2, and 0.005% Triton X-100, and dispensed into a 384-well plate (10 μL per well). Test compounds were serially pre-diluted in DMSO and added to the protein samples by acoustic dispensing (Labcyte Echo). The concentration of DMSO was equalized to 1% in all samples. All test compounds were tested at 12 concentrations. Apilimod was used as a reference compound and was tested in identical manner in each assay plate. Control samples (0%-inhibition, in the absence of inhibitor, DMSO only) and 100%-inhibition (in the absence of enzyme) were assembled in replicates of four and were used to calculate %-inhibition in the presence of compounds. The reactions were initiated by addition of 10 μL of 2× PI3P/PS substrate supplemented with ATP. The final concentration of enzyme was 2 nM, the final concentration of ATP was 10 mM, and the final concentration of PI3P/PS substrate was 1 μM (PI3P). The kinase reactions were allowed to proceed for 3 h at room temperature. Following incubation, the reactions were quenched by addition of […] of termination buffer (100 mM HEPES, pH 7.5, 0.01% Triton X-100, 20 mM EDTA). Terminated plates were analyzed on a microfluidic electrophoresis instrument (Caliper LabChip® 3000, Caliper Life Sciences/Perkin Elmer). The change in the relative fluorescence intensity of the PI (3) P substrate and PI (3,5) P product peaks was measured. The activity in each test sample was determined as the product to sum ratio (PSR): P/(S+P), where P is the peak height of the product, and S is the peak height of the substrate. Percent inhibition (Pinh) was determined using the following equation: Pinh=(PSR0% inh−PSRcompound)/(PSR0% inh−PSR100% inh)*100 in which PSRcompound is the product/sum ratio in the presence of compound, PSR0% inh is the product/sum ratio in the absence of compound, and the PSR100% inh is the product/sum ratio in the absence of the enzyme.

Chain of Full length human recombinant PIKFYVE (Q9Y2I7 whole entry): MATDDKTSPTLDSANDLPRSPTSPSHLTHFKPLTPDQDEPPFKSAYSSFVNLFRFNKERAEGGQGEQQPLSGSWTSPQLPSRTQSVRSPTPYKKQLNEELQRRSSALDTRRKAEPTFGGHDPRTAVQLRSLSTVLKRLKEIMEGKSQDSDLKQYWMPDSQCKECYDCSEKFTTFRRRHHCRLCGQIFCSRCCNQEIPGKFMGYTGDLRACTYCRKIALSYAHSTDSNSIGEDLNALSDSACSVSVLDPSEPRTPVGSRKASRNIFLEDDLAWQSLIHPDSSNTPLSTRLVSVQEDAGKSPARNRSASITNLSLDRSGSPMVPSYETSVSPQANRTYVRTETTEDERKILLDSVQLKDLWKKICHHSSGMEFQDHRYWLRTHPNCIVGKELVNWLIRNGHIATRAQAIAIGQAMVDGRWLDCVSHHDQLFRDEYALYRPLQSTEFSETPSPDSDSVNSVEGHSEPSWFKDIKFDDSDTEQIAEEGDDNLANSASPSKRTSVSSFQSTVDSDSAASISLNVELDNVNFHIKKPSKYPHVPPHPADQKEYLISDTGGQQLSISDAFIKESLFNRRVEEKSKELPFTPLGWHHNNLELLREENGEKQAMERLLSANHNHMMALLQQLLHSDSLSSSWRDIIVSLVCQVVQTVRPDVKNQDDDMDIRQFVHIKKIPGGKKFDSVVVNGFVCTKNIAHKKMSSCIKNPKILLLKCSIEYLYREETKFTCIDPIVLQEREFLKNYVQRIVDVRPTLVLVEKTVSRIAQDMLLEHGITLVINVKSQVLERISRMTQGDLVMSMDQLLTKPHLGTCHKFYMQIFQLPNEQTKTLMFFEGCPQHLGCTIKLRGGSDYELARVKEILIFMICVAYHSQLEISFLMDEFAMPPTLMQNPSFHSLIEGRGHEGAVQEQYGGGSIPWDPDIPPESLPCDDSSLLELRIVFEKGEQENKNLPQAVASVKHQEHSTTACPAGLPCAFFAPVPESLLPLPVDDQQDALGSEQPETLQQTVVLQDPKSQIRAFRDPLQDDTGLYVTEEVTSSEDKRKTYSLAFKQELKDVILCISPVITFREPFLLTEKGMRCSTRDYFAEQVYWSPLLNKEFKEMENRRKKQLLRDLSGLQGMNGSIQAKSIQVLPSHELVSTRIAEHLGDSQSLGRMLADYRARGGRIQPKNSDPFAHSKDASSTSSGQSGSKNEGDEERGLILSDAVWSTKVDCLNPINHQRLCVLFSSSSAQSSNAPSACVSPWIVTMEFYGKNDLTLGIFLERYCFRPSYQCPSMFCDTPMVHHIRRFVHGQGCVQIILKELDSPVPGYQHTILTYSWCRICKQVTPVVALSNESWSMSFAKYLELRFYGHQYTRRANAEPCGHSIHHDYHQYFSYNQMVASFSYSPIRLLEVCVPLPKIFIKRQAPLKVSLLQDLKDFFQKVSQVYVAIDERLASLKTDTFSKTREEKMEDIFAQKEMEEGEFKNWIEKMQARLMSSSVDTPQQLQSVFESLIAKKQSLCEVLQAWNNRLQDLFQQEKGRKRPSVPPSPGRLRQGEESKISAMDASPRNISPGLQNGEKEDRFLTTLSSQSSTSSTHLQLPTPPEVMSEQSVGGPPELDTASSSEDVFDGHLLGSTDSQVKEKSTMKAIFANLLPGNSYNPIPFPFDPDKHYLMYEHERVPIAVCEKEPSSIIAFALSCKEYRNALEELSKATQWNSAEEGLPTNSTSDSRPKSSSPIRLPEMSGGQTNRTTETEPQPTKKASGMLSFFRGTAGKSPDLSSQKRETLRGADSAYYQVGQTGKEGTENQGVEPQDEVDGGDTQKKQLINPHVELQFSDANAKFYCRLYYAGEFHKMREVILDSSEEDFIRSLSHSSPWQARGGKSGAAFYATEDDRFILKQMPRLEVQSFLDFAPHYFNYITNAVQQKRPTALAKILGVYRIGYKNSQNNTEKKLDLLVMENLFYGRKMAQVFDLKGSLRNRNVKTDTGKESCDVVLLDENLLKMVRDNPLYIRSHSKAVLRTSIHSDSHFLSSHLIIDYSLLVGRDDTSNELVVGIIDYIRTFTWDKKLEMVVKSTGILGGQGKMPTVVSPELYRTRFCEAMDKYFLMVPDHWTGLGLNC

Row | IC50 | SMILES
1 | 28.4 nM | Cc1cccc(-c2ccn(-c3cc(N4CCOCC4)n4nc(C(=O)N[C@@H]5CCCN(C)C5)cc4n3)n2)c1 [Compound 52, N-[(3R)-1-methyl-3-piperidyl]-7-morpholino-5-[3-(m-tolyl)pyrazol-1-yl]pyrazolo[1,5-a]pyrimidine-2-carboxamide]
2 | 62.4 nM | Cn1cc(-c2cc3nc(-n4ccc(-c5ccccc5)n4)cc(N4CCOCC4)n3n2)cn1 [Compound 115, 4-[2-(1-methylpyrazol-4-yl)-5-(3-phenylpyrazol-1-yl)pyrazolo[1,5-a]pyrimidin-7-yl]morpholine]
3 | 2.5 nM | Cc1cccc(-c2ccn(-c3cc(N4CCOCC4)n4nc(-c5cn[nH]c5)cc4n3)n2)c1 [Compound 113, 4-[5-[3-(m-tolyl)pyrazol-1-yl]-2-(1H-pyrazol-4-yl)pyrazolo[1,5-a]pyrimidin-7-yl]morpholine]
4 | 2.2 nM | Cc1cccc(-c2ccn(-c3cc(N4CCOCC4)n4nc(-c5cc(C)no5)cc4n3)n2)c1 [Compound 110, 4-[2-(3-methylisoxazol-5-yl)-5-[3-(m-tolyl)pyrazol-1-yl]pyrazolo[1,5-a]pyrimidin-7-yl]morpholine]
5 | 15.8 nM | Cc1cccc(-c2ccn(-c3cc(N4CCOCC4)n4nc(-c5cc[nH]n5)cc4n3)n2)c1 [Compound 62, 4-[5-[3-(m-tolyl)pyrazol-1-yl]-2-(1H-pyrazol-3-yl)pyrazolo[1,5-a]pyrimidin-7-yl]morpholine]
6 | 22.6 nM | Cc1cccc(-c2ccn(-c3cc(N4CCOCC4)n4nc(-c5cc(C)nn5CCN(C)C)cc4n3)n2)c1 [Compound 83, N,N-dimethyl-2-[3-methyl-5-[7-morpholino-5-[3-(m-tolyl)pyrazol-1-yl]pyrazolo[1,5-a]pyrimidin-2-yl]pyrazol-1-yl]ethanamine]
7 | 81.5 nM | COCCNC(=O)c1cc2nc(-n3ccc(-c4cccc(C)c4)n3)cc(N3CCOCC3)n2n1 [Example 23, N-(2-methoxyethyl)-7-morpholino-5-(3-(m-tolyl)-1H-pyrazol-1-yl)pyrazolo[1,5-a]pyrimidine-2-carboxamide]
8 | 18.4 nM | Cc1cccc(-c2ccn(-c3cc(N4CCOCC4)n4nc(C(=O)N[C@H]5CCOC5)cc4n3)n2)c1 [Compound 50, 7-morpholino-5-[3-(m-tolyl)pyrazol-1-yl]-N-[(3S)-tetrahydrofuran-3-yl]pyrazolo[1,5-a]pyrimidine-2-carboxamide]
9 | > 10000 nM | Cc1ccn(-c2cc(N3CCOCC3)n3nc(-c4ccncc4)cc3n2)n1 [Example 16, 4-[5-(3-methylpyrazol-1-yl)-2-(4-pyridyl)pyrazolo[1,5-a]pyrimidin-7-yl]morpholine]
10 | 208 nM | c1ccc(-c2ccn(-c3cc(N4CCOCC4)n4nc(-c5cccnn5)cc4n3)n2)cc1 [Compound 88, 4-[5-(3-phenylpyrazol-1-yl)-2-pyridazin-3-yl-pyrazolo[1,5-a]pyrimidin-7-yl]morpholine]
11 | 276 nM | Cc1cccc(-c2ccn(-c3cc(N4CCOCC4)n4nc(C(=O)N(C)C)cc4n3)n2)c1 [Example 24, N,N-dimethyl-7-morpholino-5-(3-(m-tolyl)-1H-pyrazol-1-yl)pyrazolo[1,5-a]pyrimidine-2-carboxamide]
12 | 122 nM | Cc1cccc(-c2ccn(-c3cc(N4CCOCC4)n4nc(C(=O)NOC5COC5)cc4n3)n2)c1 [Example 47, 7-morpholino-N-(oxetan-3-yloxy)-5-(3-(m-tolyl)-1H-pyrazol-1-yl)pyrazolo[1,5-a]pyrimidine-2-carboxamide]
13 | 422 nM | Cc1cccc(-c2ccn(-c3cc(N4CCOCC4)n4nc(C(=O)NS(C)(=O)=O)cc4n3)n2)c1 [Example 35, N-(methylsulfonyl)-7-morpholino-5-(3-(m-tolyl)-1H-pyrazol-1-yl)pyrazolo[1,5-a]pyrimidine-2-carboxamide]
14 | 2.6 nM | Cc1cccc(-c2ccn(-c3cc(N4CCOCC4)n4nc(-c5cc(C)nn5C)cc4n3)n2)c1 [Compound 84, 4-[2-(2,5-dimethylpyrazol-3-yl)-5-[3-(m-tolyl)pyrazol-1-yl]pyrazolo[1,5-a]pyrimidin-7-yl]morpholine]
15 | 207 nM | c1ccc(-c2ccn(-c3cc(N4CCOCC4)n4nc(-c5ccncc5)cc4n3)n2)cc1 [Example 13, 4-[5-(3-phenylpyrazol-1-yl)-2-(4-pyridyl)pyrazolo[1,5-a]pyrimidin-7-yl]morpholine]
16 | 32.2 nM | Cc1cc(-c2cc3nc(-n4ccc(-c5ccccc5)n4)cc(N4CCOCC4)n3n2)nn1C [Compound 86, 4-[2-(1,5-dimethylpyrazol-3-yl)-5-(3-phenylpyrazol-1-yl)pyrazolo[1,5-a]pyrimidin-7-yl]morpholine]
17 | 104 nM | Cn1ccc(-c2cc3nc(-n4ccc(-c5ccccc5)n4)cc(N4CCOCC4)n3n2)n1 [Compound 66, 4-[2-(1-methylpyrazol-3-yl)-5-(3-phenylpyrazol-1-yl)pyrazolo[1,5-a]pyrimidin-7-yl]morpholine]
18 | 3150 nM | Cc1ccccc1-c1cc(Nc2cc(N3CCOCC3)n3nc(-c4ccncc4)cc3n2)n[nH]1 [Example 3, 7-morpholino-N-[5-(o-tolyl)-1H-pyrazol-3-yl]-2-(4-pyridyl)pyrazolo[1,5-a]pyrimidin-5-amine]
19 | 94.6 nM | Cc1cccc(-c2ccn(-c3cc(N4CCOCC4)n4nc(C(=O)N5CCCC5)cc4n3)n2)c1 [Example 29, (7-morpholino-5-(3-(m-tolyl)-1H-pyrazol-1-yl)pyrazolo[1,5-a]pyrimidin-2-yl) (pyrrolidin-1-yl)methanone]
20 | 215 nM | Cc1cc(-c2cc3nc(-n4ccc(-c5ccccc5)n4)cc(N4CCOCC4)n3n2)n(C)n1 [Compound 85, 4-[2-(2,5-dimethylpyrazol-3-yl)-5-(3-phenylpyrazol-1-yl)pyrazolo[1,5-a]pyrimidin-7-yl]morpholine]
21 | 3420 nM | Cc1cccc(-c2cnn(-c3cc(N4CCOCC4)n4nc(C(=O)NC5CCOCC5)cc4n3)c2)c1 [Compound 56, 7-morpholino-5-[4-(m-tolyl)pyrazol-1-yl]-N-tetrahydropyran-4-yl-pyrazolo[1,5-a]pyrimidine-2-carboxamide]
22 | 113 nM | CON(C)C(=O)c1cc2nc(-n3ccc(-c4cccc(C)c4)n3)cc(N3CCOCC3)n2n1 [Example 33, N-methoxy-N-methyl-7-morpholino-5-(3-(m-tolyl)-1H-pyrazol-1-yl)pyrazolo[1,5-a]pyrimidine-2-carboxamide]
23 | 105 nM | Cc1cccc(-c2ccn(-c3cc(N4CCOCC4)n4nc(C(=O)N5CC6(COC6)C5)cc4n3)n2)c1 [Example 45, (7-morpholino-5-(3-(m-tolyl)-1H-pyrazol-1-yl)pyrazolo[1,5-a]pyrimidin-2-yl) (2-oxa-6-azaspiro[3.3]heptan-6-yl)methanone]
24 | 281 nM | c1ccc(-c2ccn(-c3cc(N4CCOCC4)n4nc(-c5ccccn5)cc4n3)n2)cc1 [Compound 72, 4-[5-(3-phenylpyrazol-1-yl)-2-(2-pyridyl)pyrazolo[1,5-a]pyrimidin-7-yl]morpholine]
25 | 9.4 nM | Cc1cccc(-c2ccn(-c3cc(N4CCOCC4)n4nc(-c5cc(C)n(CCN(C)C)n5)cc4n3)n2)c1 [Compound 91, N,N-dimethyl-2-[5-methyl-3-[7-morpholino-5-[3-(m-tolyl)pyrazol-1-yl]pyrazolo[1,5-a]pyrimidin-2-yl]pyrazol-1-yl]ethanamine]
26 | 258 nM | Cc1cccc(-c2ccn(-c3cc(N4CCOCC4)n4nc(C(=O)NCCN(C)C)cc4n3)n2)c1 [Example 40, N-(2-(dimethylamino)ethyl)-7-morpholino-5-(3-(m-tolyl)-1H-pyrazol-1-yl)pyrazolo[1,5-a]pyrimidine-2-carboxamide]
27 | 113 nM | Cc1cccc(-c2ccn(-c3cc(N4CCOCC4)n4nc(C(=O)N5CCC56COC6)cc4n3)n2)c1 [Example 46, (7-morpholino-5-(3-(m-tolyl)-1H-pyrazol-1-yl)pyrazolo[1,5-a]pyrimidin-2-yl) (6-oxa-1-azaspiro[3.3]heptan-1-yl)methanone]
28 | 2160 nM | CCC(=O)NCc1cc2nc(-n3ccc(-c4ccccc4)n3)cc(N3CCOCC3)n2n1 [Compound 90]
29 | 437 nM | CCN(C)C(=O)c1cc2nc(-n3ccc(-c4cccc(C)c4)n3)cc(N3CCOCC3)n2n1 [Example 25, N-ethyl-N-methyl-7-morpholino-5-(3-(m-tolyl)-1H-pyrazol-1-yl)pyrazolo[1,5-a]pyrimidine-2-carboxamide]
30 | 76.2 nM | CCNC(=O)c1cc2nc(-n3ccc(-c4cccc(C)c4)n3)cc(N3CCOCC3)n2n1 [Example 19, N-ethyl-7-morpholino-5-(3-(m-tolyl)-1H-pyrazol-1-yl)pyrazolo[1,5-a]pyrimidine-2-carboxamide]

Source: patent US12486274B2, “Substituted pyrazolo-pyrimidines and uses thereof” (Verge Analytics, Inc., priority 2020, dated 2025)
